Reference: PMC8578705 (Cell Reports, 2021)

Tests used:
[1] = target: T1, IP3R1 (HEK-IP3R1 cells) (Rattus norvegicus, UniProt P29994); assay: Ca2+ release from permeabilized HEK-IP3R1 cells; assay type: cell-based; conditions: at the concentrations used (heparin 10 mg/mL, dequalinium 50 μM, 2-APB 125 μM), permeabilized HEK-IP3R1 cells
T1 construct: expressed in transfected cells
Protocol: Fluorescence, which is approximately linearly related to ER free [Ca^2+] […] Ca^2+-free CLM comprised: 20 mM NaCl, 140 mM KCl, 1 mM EGTA, 20 mM PIPES, 2 mM MgCl2, pH 7.0. […] MgATP (1.5 mM) was added to initiate Ca^2+ uptake, and when the ER had loaded to steady state with Ca^2+ (∼150 s), ligands were added. Responses to the ligands show ER Ca^2+ contents as either time courses or, in summary results, as the Ca^2+ content recorded 20 s after addition of the stimulus. The distribution of samples across 96-well plates was varied between experiments to avoid any systematic ‘position-related’ artifacts. HEK-G-CEPIA1er cells were permeabilized and assayed as described for Mag-fluo 4-loaded cells.
For equilibrium binding and concentration-effect relationships, results from each experiment were fitted to Hill equations (PRISM) from which pIC50 (-log of half-maximal inhibitory concentration) or pEC50 (-log of half-maximally effective concentration) values were determined.

[2] = system: SERCAs; assay: Ca2+ uptake by the intracellular stores of permeabilized HEK-IP3R1 cells; assay type: cell-based, Homo sapiens; conditions: heparin 10 mg/mL
Protocol: Figure S6. Effects of heparin, 2-APB and dequalinium on IP3Rs and Ca2+ uptake by intracellular […]
Related to Figures 5 and 6.
(A) Structures of the antagonists used.
CLM at 20 °C. Mean ± SEM, n = 3.
(C-F) Permeabilized HEK-IP3R1 cells were loaded with Ca2+, and SERCA was then inhibited with CPA (10 μM) before addition of DMSO (1% v/v; C) or dequalinium (10-100 μM, D-F), and then the indicated […]
Mean of 2 replicates, typical of 5 experiments.
(G) Summary results (mean ± SEM, n = 5, each with duplicate determinations) show Ca2+ released by […]
ER Ca2+ content was measured 20
(H-J) Similar analyses of the effects of heparin (10 mg/mL, I) or 2-APB (125 μM, J). Means of 2 replicates, typical of 3-5 experiments.
(K) Effects of dequalinium (50 μM), heparin (10 mg/mL) or 2-APB (125 μM) on Ca2+ uptake by the intracellular stores of permeabilized HEK-IP3R1 cells. Mean ± SD of 4-6 replicates, typical of 4 […]
(L) and the rate of Ca2+ uptake (M). ER Ca2+ content was measured 180 s after addition of ATP (L).
Mean ± SEM, n = 4, each with 4-6 determinations. ****P < 0.0001, ***P < 0.001, *P < 0.05 one-way ANOVA with Bonferroni's test relative to control.

[3] = target: T2, CFP-TRPML1 (Homo sapiens, UniProt Q9GZU1); assay: ER Ca2+ release from permeabilized HEK cells expressing CFP-TRPML1; assay type: cell-based
T2 construct: host or cells: HEK cells, transient transfection
T2 sequence (Q9GZU1 whole entry): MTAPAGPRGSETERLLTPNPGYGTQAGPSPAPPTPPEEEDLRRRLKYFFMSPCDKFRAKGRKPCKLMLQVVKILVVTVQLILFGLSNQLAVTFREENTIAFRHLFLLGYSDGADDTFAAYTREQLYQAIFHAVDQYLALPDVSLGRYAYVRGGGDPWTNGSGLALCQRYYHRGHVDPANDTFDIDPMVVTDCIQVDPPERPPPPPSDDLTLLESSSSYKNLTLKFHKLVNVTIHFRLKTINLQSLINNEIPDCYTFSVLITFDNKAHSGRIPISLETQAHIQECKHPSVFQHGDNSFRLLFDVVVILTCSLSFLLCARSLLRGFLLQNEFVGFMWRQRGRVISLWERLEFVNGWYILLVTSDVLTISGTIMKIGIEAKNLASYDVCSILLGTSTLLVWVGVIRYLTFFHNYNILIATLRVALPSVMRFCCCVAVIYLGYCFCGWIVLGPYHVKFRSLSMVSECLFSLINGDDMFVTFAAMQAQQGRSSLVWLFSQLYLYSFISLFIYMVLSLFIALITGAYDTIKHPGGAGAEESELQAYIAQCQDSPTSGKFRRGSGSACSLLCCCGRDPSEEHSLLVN
Description: Figure 4 Neither ER reorganization nor luminal Ca^2+ mediates quantal Ca^2+ release (A) Effects of the indicated concentrations of ML-SA1 on the ER Ca^2+ content of permeabilized HEK cells expressing CFP-TRPML1. (B) Semi-logarithmic plots show mono-exponential loss of ER Ca^2+ after treatment with ML-SA1. Results (A and B) are typical of four experiments, each with duplicate determinations. Summary results are in Figure S5B. (C and D) Permeabilized DT40-IP3R1 cells were loaded to steady state with Ca^2+ before addition of thapsigargin (TG, 1 μM) to inhibit SERCAs. […] Results are typical of 29–36 experiments. […] See also Figure S5.
Incubation of cells with the acetoxymethylester (AM) of Mag-fluo 4 traps low-affinity forms of the indicator ( KdCa = 1.15 mM measured in situ) within the ER. Fluorescence, which is approximately linearly related to ER free [Ca^2+] (since [Ca^2+]ER < KdCa ), can then be used, without further calibration, to reliably report free [Ca^2+] within the ER lumen ([Rossi and Taylor, 2020]). The ER of DT40 or HEK293 cells was loaded with indicator by incubating cells with Mag-fluo 4 AM (20 μM, 60 min, 22°C) in HEPES-buffered saline (HBS: 135 mM NaCl, 5.9 mM KCl, 11.6 mM HEPES, 1.5 mM CaCl2, 11.5 mM glucose, 1.2 mM MgCl2, pH 7.3) as described ([Rossi et al., 2009]). […]

[4] = system: mock-transfected HEK cells; assay: ER Ca2+ release from permeabilized mock-transfected HEK cells; assay type: cell-based, Homo sapiens; conditions: ML-SA1 0-100 μM
Protocol: Figure S5. Evidence that over-expressed TRPML1 releases Ca2+ from ER, and that erlin 2 does not mediate quantal Ca2+ release
Ca2+ uptake into the ER of permeabilized HEK cells was initiated by addition of ATP (1.5 mM), before adding CPA (10 μM) and then the indicated […]
concentration of ML-SA1 (0-100 μM).
(B) Summary results from experiments similar to those shown in Figure 4A show half-times (t1/2) for loss of ER Ca2+ evoked by the indicated concentrations of ML-SA1 (mean ± SEM, n = 4, each with 2 […]
(C) Addition of ATP (1.5 mM) to permeabilized HEK cells stimulates Ca2+ uptake into the ER, reported by the increase in Mag-fluo 4 fluorescence. The response is abolished by CPA (10 µM) added 60 s before ATP. Mean ± SEM, n = 4, each with 2 replicates. RFU, relative fluorescence units.
(D) Permeabilized HEK cells expressing CFP-TRPML1 were treated (60 min) with vehicle (DMSO), bafilomycin A1 (1 µM to inhibit the lysosomal H+ pump) or FCCP (10 µM to dissipate H+ gradients) before addition of ATP (1.5 mM) to initiate Ca2+ uptake. After addition of CPA (10 μM), ML-SA1 (30 µM) was added where indicated. Mean ± SD of 3 replicates. […]
(F) TIRFM images show expression of CFP-TRPML1 and EGFP-IP3R1 in HEK cells expressing both proteins, typical of 3 independent experiments (~10 cells in each). […] It was impracticable, when most CFP-TRPML1 is lysosomal, to quantify any colocalization with IP3Rs. […]

T1 sequence (P29994 1-2735 isoform P29994-2): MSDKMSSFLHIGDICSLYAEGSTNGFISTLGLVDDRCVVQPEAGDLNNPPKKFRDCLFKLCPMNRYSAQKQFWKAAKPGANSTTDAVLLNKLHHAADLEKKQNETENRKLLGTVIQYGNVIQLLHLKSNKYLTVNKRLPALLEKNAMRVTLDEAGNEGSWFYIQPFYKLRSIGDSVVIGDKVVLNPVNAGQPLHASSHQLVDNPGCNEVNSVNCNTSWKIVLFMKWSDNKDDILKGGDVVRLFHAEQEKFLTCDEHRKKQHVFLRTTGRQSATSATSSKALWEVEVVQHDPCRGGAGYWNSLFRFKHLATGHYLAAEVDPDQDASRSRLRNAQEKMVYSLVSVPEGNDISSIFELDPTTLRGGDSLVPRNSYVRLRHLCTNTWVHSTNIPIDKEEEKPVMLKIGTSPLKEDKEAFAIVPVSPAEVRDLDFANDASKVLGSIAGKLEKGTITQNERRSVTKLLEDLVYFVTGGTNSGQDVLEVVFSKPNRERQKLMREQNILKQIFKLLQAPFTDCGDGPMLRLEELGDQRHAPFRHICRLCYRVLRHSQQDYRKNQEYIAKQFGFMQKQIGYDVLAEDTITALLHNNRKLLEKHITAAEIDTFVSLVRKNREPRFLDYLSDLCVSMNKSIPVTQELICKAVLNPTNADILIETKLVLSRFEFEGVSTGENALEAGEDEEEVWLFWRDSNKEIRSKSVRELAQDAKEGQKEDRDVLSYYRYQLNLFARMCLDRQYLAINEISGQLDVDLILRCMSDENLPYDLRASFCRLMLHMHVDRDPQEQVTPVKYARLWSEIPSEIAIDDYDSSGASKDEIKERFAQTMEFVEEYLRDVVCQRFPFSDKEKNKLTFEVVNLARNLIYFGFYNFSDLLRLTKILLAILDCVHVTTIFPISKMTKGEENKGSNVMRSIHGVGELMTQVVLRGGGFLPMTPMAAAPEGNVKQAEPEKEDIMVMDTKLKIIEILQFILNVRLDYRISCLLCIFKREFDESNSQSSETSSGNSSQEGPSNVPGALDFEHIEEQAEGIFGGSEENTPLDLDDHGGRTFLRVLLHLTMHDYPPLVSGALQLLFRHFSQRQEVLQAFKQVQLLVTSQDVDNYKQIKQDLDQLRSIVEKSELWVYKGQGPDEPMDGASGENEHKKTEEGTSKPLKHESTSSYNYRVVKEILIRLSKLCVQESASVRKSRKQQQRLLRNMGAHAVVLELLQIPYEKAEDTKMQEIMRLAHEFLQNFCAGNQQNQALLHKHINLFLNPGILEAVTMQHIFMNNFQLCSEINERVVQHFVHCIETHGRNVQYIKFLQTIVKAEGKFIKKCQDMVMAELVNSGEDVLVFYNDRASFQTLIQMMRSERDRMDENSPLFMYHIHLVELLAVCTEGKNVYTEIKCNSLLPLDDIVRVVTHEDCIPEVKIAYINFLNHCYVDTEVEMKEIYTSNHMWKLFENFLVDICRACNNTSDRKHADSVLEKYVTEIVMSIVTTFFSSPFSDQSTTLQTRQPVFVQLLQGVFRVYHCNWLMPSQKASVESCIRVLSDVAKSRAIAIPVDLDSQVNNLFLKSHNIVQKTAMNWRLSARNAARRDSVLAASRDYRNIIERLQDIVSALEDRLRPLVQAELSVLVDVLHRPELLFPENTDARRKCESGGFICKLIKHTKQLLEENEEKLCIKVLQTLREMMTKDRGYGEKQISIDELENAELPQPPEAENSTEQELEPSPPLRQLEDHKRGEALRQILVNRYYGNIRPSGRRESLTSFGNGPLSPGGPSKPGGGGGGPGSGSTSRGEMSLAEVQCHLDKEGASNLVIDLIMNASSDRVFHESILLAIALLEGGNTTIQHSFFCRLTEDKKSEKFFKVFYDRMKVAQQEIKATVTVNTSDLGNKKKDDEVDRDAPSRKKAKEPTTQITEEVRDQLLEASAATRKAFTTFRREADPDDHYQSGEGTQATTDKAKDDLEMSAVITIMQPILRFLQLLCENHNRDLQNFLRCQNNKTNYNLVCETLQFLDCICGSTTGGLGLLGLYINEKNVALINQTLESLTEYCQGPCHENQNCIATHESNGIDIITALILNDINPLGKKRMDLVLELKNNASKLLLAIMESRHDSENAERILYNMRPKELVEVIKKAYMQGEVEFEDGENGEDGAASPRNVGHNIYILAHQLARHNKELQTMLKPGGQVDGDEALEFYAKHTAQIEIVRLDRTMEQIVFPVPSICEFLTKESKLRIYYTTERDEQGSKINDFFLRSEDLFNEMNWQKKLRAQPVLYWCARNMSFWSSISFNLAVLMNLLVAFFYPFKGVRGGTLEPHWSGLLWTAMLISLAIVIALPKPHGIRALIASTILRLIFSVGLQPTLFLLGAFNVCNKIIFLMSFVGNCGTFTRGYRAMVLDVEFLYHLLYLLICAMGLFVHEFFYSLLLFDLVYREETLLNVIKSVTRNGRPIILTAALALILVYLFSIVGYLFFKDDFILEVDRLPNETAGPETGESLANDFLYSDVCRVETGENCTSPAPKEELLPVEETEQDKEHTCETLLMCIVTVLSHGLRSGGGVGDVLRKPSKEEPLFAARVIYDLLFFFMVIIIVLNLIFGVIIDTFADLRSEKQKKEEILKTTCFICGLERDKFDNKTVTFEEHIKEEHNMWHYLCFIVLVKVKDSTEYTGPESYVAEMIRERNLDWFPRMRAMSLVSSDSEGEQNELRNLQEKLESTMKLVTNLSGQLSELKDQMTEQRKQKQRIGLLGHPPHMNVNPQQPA

Row | block of IP3-evoked Ca2+ release [1] | Ca2+ release from the ER [3] | Substance | effect on SERCAs (Ca2+ uptake) [2] | response to ML-SA1 [4]
1 | completely | – | Heparin, sodium salt | partial inhibition | –
2 | – | concentration-dependent Ca^2+ release | ML-SA1 | – | do not respond
